Assay results: patent US8163724B2, “Glucocorticosteroids, processes for their preparation, pharmaceutical compositions containing them and their use in therapy” (AstraZeneca AB, priority 2007, dated 2012)

Target: T1, recombinant human GR (Homo sapiens, UniProt P04150)
T1 construct: purchased Panvera/Invitrogen P2812 (kit P2893)
T1 sequence (P04150 1-777): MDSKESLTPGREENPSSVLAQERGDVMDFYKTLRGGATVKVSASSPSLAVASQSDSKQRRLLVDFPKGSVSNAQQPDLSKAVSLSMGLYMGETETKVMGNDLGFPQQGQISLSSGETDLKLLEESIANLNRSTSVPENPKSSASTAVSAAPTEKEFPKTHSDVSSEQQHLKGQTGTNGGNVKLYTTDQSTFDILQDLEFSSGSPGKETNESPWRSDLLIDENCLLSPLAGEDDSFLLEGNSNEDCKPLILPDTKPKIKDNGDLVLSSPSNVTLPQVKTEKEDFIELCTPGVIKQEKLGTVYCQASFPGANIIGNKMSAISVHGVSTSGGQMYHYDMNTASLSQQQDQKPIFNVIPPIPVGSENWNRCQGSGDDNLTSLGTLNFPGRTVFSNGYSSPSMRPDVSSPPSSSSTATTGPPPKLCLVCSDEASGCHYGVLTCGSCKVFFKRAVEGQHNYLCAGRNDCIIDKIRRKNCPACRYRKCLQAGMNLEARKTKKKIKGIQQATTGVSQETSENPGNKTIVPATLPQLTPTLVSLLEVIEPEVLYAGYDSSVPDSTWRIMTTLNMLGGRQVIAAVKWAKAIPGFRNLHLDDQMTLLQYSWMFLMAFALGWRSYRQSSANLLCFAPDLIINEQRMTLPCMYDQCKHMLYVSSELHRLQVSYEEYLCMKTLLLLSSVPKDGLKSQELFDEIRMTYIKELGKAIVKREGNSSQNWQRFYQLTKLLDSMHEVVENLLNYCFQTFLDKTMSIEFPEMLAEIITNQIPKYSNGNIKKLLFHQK
Assay: Human Glucocorticoid Receptor (GR) Assay (fluorescence polarization, Panvera/Invitrogen kit)
Assay type: binding
Details: fluorescence polarization; GS Red tracer; 2 hours at room temperature; 100% control 10 μM Dexamethasone; read-out: Inhibition of GR binding, IC50
How it was run: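 Fluorescence polarization competition with recombinant GR and GS Red fluorescent ligand plus stabilizing peptide and DTT in potassium phosphate/sodium molybdate/EDTA buffer with DMSO. Incubated 2 hours at room temperature in the dark; 0% control DMSO, 100% control 10 μM dexamethasone.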

Molecule | IC50 [nM]
COCC(=O)O[C@]1(C(=O)SCC#N)CC[C@H]2[C@@H]3CCC4=Cc5c(cnn5-c5ccc(F)nc5)C[C@]4(C)[C@@]3(F)[C@@H](O)C[C@@]21C [Example 205, (1R,3aS,3bS,10aS,10bR,11S,12aS)-1-{[(Cyanomethyl)sulfanyl]carbonyl}-10b-fluoro-7-(6-fluoropyridin-3-yl)-11-hydroxy-10a,12a-dimethyl-1,2,3,3a,3b,4,5,7,10,10a,10b,11,12,12a-tetradecahydrocyclopenta[5,6]naphtho[1,2-f]indazol-1-yl methoxyacetate] | 1.4
COCC(=O)O[C@]1(C(=O)SCF)CC[C@H]2[C@@H]3CCC4=Cc5c(cnn5-c5ccc(F)nc5)C[C@]4(C)[C@@]3(F)[C@@H](O)C[C@@]21C [Example 206, (1R,3aS,3bS,10aS,10bR,11S,12aS)-1-{[(Fluoromethyl)sulfanyl]carbonyl}-10b-fluoro-7-(6-fluoropyridin-3-yl)-11-hydroxyl-1,2,3,3a,3b,4,5,7,10,10a,10b,11,12,12a-tetradecahydrocyclopenta[5,6]naphtho[1,2-f]indazol-1-yl methoxyacetate] | 2.5
C[C@]12Cc3cnn(-c4ccc(F)nc4)c3C=C1CC[C@H]1[C@@H]3CC[C@](OC(=O)C4CC4)(C(=O)SCC#N)[C@@]3(C)C[C@H](O)[C@@]12F [Example 207, (1R,3aS,3bS,10aS,10bR,11S,12aS)-1-{[(Cyanomethyl)sulfanyl]carbonyl}-10b-fluoro-7-(6-fluoropyridin-3-yl)-11-hydroxy-10a,12a-dimethyl-1,2,3,3a,3b,4,5,7,10,10a,10b,11,12,12a-tetradecahydrocyclopenta[5,6]naphtho[1,2-f]indazol-1-yl cyclopropanecarboxylate] | 3.3
C[C@]12Cc3cnn(-c4ccc(F)nc4)c3C=C1CC[C@H]1[C@@H]3CC[C@](OC(=O)C4CC4)(C(=O)SCF)[C@@]3(C)C[C@H](O)[C@@]12F [Example 208, (1R,3aS,3bS,10aS,10bR,11S,12aS)-1-{[(Fluoromethyl)sulfanyl]carbonyl}-10b-fluoro-7-(6-fluoropyridin-3-yl)-11-hydroxy-10a,12a-dimethyl-1,2,3,3a,3b,4,5,7,10,10a,10b,11,12,12a-tetradecahydrocyclopenta[5,6]naphtho[1,2-f]indazol-1-yl cyclopropanecarboxylate] | 3.4
C[C@]12Cc3cnn(-c4ccc(F)nc4)c3C=C1CC[C@H]1[C@@H]3CC[C@](OC(=O)c4cocn4)(C(=O)SCC#N)[C@@]3(C)C[C@H](O)[C@@]12F [Example 209, (1R,3aS,3bS,10aS,1.0bR,11S,12aS)-1-{[(Cyanomethyl)sulfanyl]carbonyl}-10b-fluoro-7-(6-fluoropyridin-3-yl)-11-hydroxy-10a,12a-dimethyl-1,2,3,3a,3b,4,5,7,10,10a,10b,11,12,12a-tetradecahydrocyclopenta[5,6]naphtho[1,2-f]indazol-1-yl 1,3-oxazole-4-carboxylate] | 3.6
C[C@]12Cc3cnn(-c4ccc(F)nc4)c3C=C1CC[C@H]1[C@@H]3CC[C@](OC(=O)c4cocn4)(C(=O)SCF)[C@@]3(C)C[C@H](O)[C@@]12F [Example 210, (1R,3aS,3bS,10aS,10bR,11S,12aS)-1-{[(Fluoromethyl)sulfanyl]carbonyl}-10b-fluoro-7-(6-fluoropyridin-3-yl)-11-hydroxy-10a,12a-dimethyl-1,2,3,3a,3b,4,5,7,10,10a,10b,11,12,12a-tetradecahydrocyclopenta[5,6]naphtho[1,2-f]indazol-1-yl 1,3-oxazole-4-carboxylate] | 2
C[C@]12Cc3cnn(-c4ccc(F)nc4)c3C=C1CC[C@H]1[C@@H]3CC[C@](OC(=O)c4ccco4)(C(=O)SCC#N)[C@@]3(C)C[C@H](O)[C@@]12F [Example 211, (1R,3aS,3bS,10aS,10bR,11S,12aS)-1-{[(Cyanomethyl)sulfanyl]carbonyl}-10b-fluoro-7-(6-fluoropyridin-3-yl)-11-hydroxy-10a,12a-dimethyl-1,2,3,3a,3b,4,5,7,10,10a,10b,11,12,12a-tetradecahydrocyclopenta[5,6]naphtho[1,2-f]indazol-1-yl furan-2-carboxylate] | 2.2
C[C@]12Cc3cnn(-c4ccc(F)nc4)c3C=C1CC[C@H]1[C@@H]3CC[C@](OC(=O)c4ccco4)(C(=O)SCF)[C@@]3(C)C[C@H](O)[C@@]12F [Example 212, (1R,3aS,3bS,10aS,10bR,11S,12aS)-1-{[(Fluoromethyl)sulfanyl]carbonyl}-10b-fluoro-7-(6-fluoropyridin-3-yl)-11-hydroxy-10a,12a-dimethyl-1,2,3,3a,3b,4,5,7,10a,10b,11,12,12a-tetradecahydrocyclopenta[5,6]naphtho[1,2-f]indazol-1-yl furan-2-carboxylate] | 2.1
CCC(=O)O[C@]1(C(=O)SCC#N)CC[C@H]2[C@@H]3C[C@H](C)C4=Cc5c(cnn5-c5ccc(F)cc5)C[C@]4(C)[C@H]3[C@@H](O)C[C@@]21C [Example 213, (1R,3aS,3bS,5S,10aR,10bS,11S,12aS)-1-{[(Cyanomethyl)sulfanyl]carbonyl}-7-(4-fluorophenyl)-11-hydroxy-5,10a,12a-trimethyl-1,2,3,3a,3b,4,5,7,10,10a,10b,11,12,12a-tetradecahydrocyclopenta[5,6]naphtho[1,2-f]indazol-1-yl propanoate] | 11
CCC(=O)O[C@]1(C(=O)SCF)CC[C@H]2[C@@H]3C[C@H](C)C4=Cc5c(cnn5-c5ccc(F)cc5)C[C@]4(C)[C@H]3[C@@H](O)C[C@@]21C [Example 214, (1R,3aS,3bS,5S,10aR,10bS,11S,12aS)-1-{[(Fluoromethyl)sulfanyl]carbonyl}-7-(4-fluorophenyl)-11-hydroxy-5,10a,12a-trimethyl-1,2,3,3a,3b,4,5,7,10,10a,10b,11,12,12a-tetradecahydrocyclopenta[5,6]naphtho[1,2-f]indazol-1-yl propanoate] | 49
COCC(=O)O[C@]1(C(=O)SCC#N)CC[C@H]2[C@@H]3C[C@H](C)C4=Cc5c(cnn5-c5ccc(F)cc5)C[C@]4(C)[C@H]3[C@@H](O)C[C@@]21C [Example 215, (1R,3aS,3bS,5S,10aR,10bS,11S,12aS)-1-{[(Cyanomethyl)sulfanyl]carbonyl}-7-(4-fluorophenyl)-11-hydroxy-5,10a,12a-trimethyl-1,2,3,3a,3b,4,5,7,10,10a,10b,11,12,12a-tetradecahydrocyclopenta[5,6]naphtho[1,2-f]indazol-1-yl methoxyacetate] | 51
COCC(=O)O[C@]1(C(=O)SCF)CC[C@H]2[C@@H]3C[C@H](C)C4=Cc5c(cnn5-c5ccc(F)cc5)C[C@]4(C)[C@H]3[C@@H](O)C[C@@]21C [Example 216, (1R,3aS,3bS,5S,10aR,10bS,11S,12aS)-1-{[(Fluoromethyl)sulfanyl]carbonyl}-7-(4-fluorophenyl)-11-hydroxy-5,10a,12a-trimethyl-1,2,3,3a,3b,4,5,7,10,10a,10b,11,12,12a-tetradecahydrocyclopenta[5,6]naphtho[1,2]-indazol-1-yl methoxyacetate] | 8.8
(1R,3aS,3bS,10aR,10bS,11S,12aS)-1-{[(Cyanomethyl)sulfanyl]carbonyl}-7-(4-fluorophenyl)-11-hydroxy-10a,12a-dimethyl-1,2,3,3a,3b,4,5,7,10,10a,10b,11,12,12a-tetradecahydrocyclopenta[5,6]naphtho[1,2]-indazol-1-yl 2-methyltetrahydrofuran-2-carboxylate [Example 132] | 4
